For this experiment, the target named is T1, Human indoleamine 2,3-dioxygenasae (IDO) (Homo sapiens, UniProt P14902).
T1 construct: His tag (N); made in house; host or cells: E. coli
The experiment in a line: Human indoleamine 2,3-dioxygenase (IDO) enzyme assay. It counts as biochemical. To be noted: 95 nM IDO, 2 mM D-Trp, pH 6.5, room temperature. How it is done: Human indoleamine 2,3-dioxygenasae (IDO) with an N-terminal His tag was expressed in E. coli and purified to homogeneity. IDO catalyzes the oxidative cleavage of the pyrrole ring of the indole nucleus of tryptophan to yield N′-formylkynurenine. The assays were performed at room temperature as described in the literature using 95 nM IDO and 2 mM D-Trp in the presence of 20 mM ascorbate, 5 μM methylene blue and 0.2 mg/mL catalase in 50 mM potassium phosphate buffer (pH 6.5). The initial reaction rates were recorded by continuously following the absorbance increase at 321 nm due to the formation of N′-formlylkynurenine. See: Sono, M., Taniguchi, T., Watanabe, Y., and Hayaishi, O. (1980) J. Biol. Chem. 255, 1339-1345. […] The symbol “+” indicates […]. The symbol “+++” indicates IC50>[…]

Results on 9 compounds are retold here after patent US20080119491A1, “AMIDINOHETEROCYCLES AS MODULATORS OF INDOLEAMINE 2,3-DIOXYGENASE” (INCYTE CORPORATION, priority 2006, published 2008).

Each structure is given as a SMILES string.

T1 sequence (P14902 whole entry): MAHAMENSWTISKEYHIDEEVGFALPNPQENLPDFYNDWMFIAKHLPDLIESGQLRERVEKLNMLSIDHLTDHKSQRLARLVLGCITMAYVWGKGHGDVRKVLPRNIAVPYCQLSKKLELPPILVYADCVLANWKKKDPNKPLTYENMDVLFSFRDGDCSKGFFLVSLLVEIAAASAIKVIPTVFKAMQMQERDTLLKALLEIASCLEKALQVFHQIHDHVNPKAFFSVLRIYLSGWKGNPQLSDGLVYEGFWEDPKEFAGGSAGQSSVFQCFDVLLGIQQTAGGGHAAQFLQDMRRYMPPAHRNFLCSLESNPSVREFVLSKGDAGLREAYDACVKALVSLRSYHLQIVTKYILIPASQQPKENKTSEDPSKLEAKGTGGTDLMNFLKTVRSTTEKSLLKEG

By IC50 is commonly meant the concentration at which inhibition is half-maximal. Take `Nc1nccnc1C(=NO)Nc1ccc(F)c(Cl)c1` [Example 6, 3-amino-N′-hydroxy-N-[3-chloro,4-fluorophenyl]pyrazine-2-carbox-imidamide]: the IC50 is more than 10 µM.
Regarding `COc1ccc(CNc2nccnc2C(=NO)Nc2cccc(C(F)(F)F)c2)cc1` [Example 1, NA-Hydroxy-3-[(4-methoxybenzyl)amino]-N-[3-(trifluoromethyl)phenyl]-pyrazine-2-carboximidamide], the IC50 was more than 10 µM.
Consider `Nc1nccnc1C(=NO)Nc1ccc(F)c(C(F)(F)F)c1` [Example 4, 3-amino-N′-hydroxy-N-[3-(tri-fluoromethyl), 4-fluorophenyl]-pyrazine-2-carboximidamide], for which the concentration for half-maximal inhibition (IC50) is more than 10 µM.
Regarding `ON=C(Nc1ccc(F)c(Cl)c1)c1cccc(Oc2ccccc2)c1` [Example 10, N-(3-chloro-4-fluorophenyl)-N′-hydroxy-3-phenoxybenzene-carboximidamide], the IC50 is more than 10 µM.
The value for `ON=C(Nc1cccc(C(F)(F)F)c1)c1cccnc1` [Example 8, N′-hydroxy-N-[3-(trifluoromethyl)-phenyl]pyridine-3-carbox-imidamide] was more than 10 µM; that for `COc1ccc(CNc2nccnc2C(=NO)Nc2ccc(F)c(Cl)c2)cc1` [Example 5] was more than 10 µM.
`ON=C(Nc1cccc(C(F)(F)F)c1)c1cnccn1` [Example 7, N′-hydroxy-N-[3-(trifluoromethyl)-phenyl]pyrazine-2-carbox-imidamide] gave an IC50 of more than 10 µM.
The value for `Cc1ccc(Cl)cc1CNC(=NO)c1cccnn1` [Example 13, N-(5-chloro-2-methylbenzyl)-N′-hydroxypyridazine-3-carboximidamide] was more than 10 µM; that for `Nc1nccnc1C(=NO)Nc1cccc(C(F)(F)F)c1` [Example 2, 3-Amino-N′-hydroxy-N-[3-(trifluoromethyl)phenyl]pyrazine-2-carboximidamide] was more than 10 µM.
